Data as given in patent US6465007B1, “Transgene expression in polarized cells” (Genzyme Corporation, priority 1998, dated 2002).

How the values were obtained:
mouse trachea [1] = assay: Aerosolized Ad2βgal-4 after intranasal pre-treatment, X-gal staining; type: in vivo
Method: Viral aerosols were generated using a MiniHEART low flow jet nebulizer (Vortran, Sacramento, Calif.). The nebulizer was operated at 50 psi with compressed medical grade air at the maximum flow rate (˜2.21 pm). Animals were exposed to the aerosol in a whole-body exposure chamber. Ten ml of an Ad2βgal-4 solution (5×10^10 IU) was aerosolized over approximately one hour. Some mice were pre-treated with 50 μl of dH2O or EGTA solution by intranasal instillation 0, 15, 30, or 60 min before aerosolization, while others received no treatment prior to exposure to aerosol. X-gal staining was performed 3 days post aerosolization.
(§1) Cytochemical localization of Ogal expression in the trachea was observed using 5-bromo-4-chloro-3-indolyl-β-D-galactopyranoside (X-gal; Sigma). In brief, cannulated mouse lungs were fixed for 10 min by infusion of a fixing solution (2% paraformaldehyde and 0.2% glutaraldehyde in PBS). The lungs were then rinsed twice with 50 mM glycine in PBS, filled with X-gal solution, and stained overnight. Staining was stopped by transfering the samples into the fixing solution.

mouse trachea [2] = assay: Intranasal instillation of Ad2βgal-4, X-gal staining of airways; type: in vivo; settings: for X-gal staining in the trachea: FIG. 4
Method: Female BALB/c mice 9-12 weeks of age were purchased from Taconic (Germantown, N.Y.). In some groups, mice were instilled intranasally with 25 μl of a solution containing EGTA (pH 7.5), followed by 25 μl of 5% sucrose in PBS containing Adβgal-4 (2×10^8 IU). In other groups, mice were co-instilled with 25 μl of a solution prepared by mixing equal volumes of a 2× (4×10^8 IU/25 μl) Ad2βgal-4 solution in 10% sucrose with 2×EGTA prior to instillation.
as §1
Trachea with staining levels were defined on a scale of 0 to 3, 0 indicating no cells staining for βgal, and a value of 3 indicating a large number of cells positive for the transgene. To evaluate the effect of EGTA concentration on AdV-mediated gene transfer in the trachea, mice were pre-treated with various concentrations of EGTA 0.5 h before AdV instillation. In some animals, AdV and EGTA were co-instilled. To exclude the possibility that any observed enhancement of expression was due to a hyperosmotic effect of the EGTA solution, a 20% mannitol solution (osmolarity similar to 0.4M EGTA) was included as a control in both the pre-treatment and co-instillation models.

polarized NHBE cells = assay: Infection with Ad2βgal-4 after pretreatment, βgal expression; type: cell-based, human; settings: cells treated with the calcium chelator
Method: Polarized NHBE cells were treated with Ca^2+-free medium (GIBCO) for 0.5 h and then rinsed twice with Opti-MEM (GIBCO). […] The cells were then infected by adding 200 μl of Opti-MEM containing Ad2βgal-4 or Ad2EGFP (100 moi) to the apical surface of the cultures, while 1 ml of OptiMEM was added to the outside of the insert. After 1 h, the viral suspension was removed, the cells washed twice with Opti-MEM and then 1 ml of the culture medium was added to the outside of the insert. Two days after infection, cells were assayed for βgal expression.

Compound: O=C(O)CN(CCOCCOCCN(CC(=O)O)CC(=O)O)CC(=O)O [EGTA, Ethylene glycol bis(B-aminoethyl ether) N,N,N′,N′-tetraacetic acid]
- X-gal stained cells in trachea after AdV aerosol (mouse trachea [1]; 50 μl of 0.1 M intranasal 30 min prior to aerosol): significant number of positively stained cells
- X-gal stained cells in trachea after AdV aerosol (mouse trachea [1]; pretreated 1 h prior to aerosol): no significant increase
- X-gal staining in the trachea (mouse trachea [2]; 0.4M pre-treatment group): most consistent and highest X-gal staining
- X-gal staining in the trachea (mouse trachea [2]; treated mice vs AdV alone, 2×10^8 IU): marked increase
- gene expression in trachea, primary bronchi and small airways (X-gal staining) (mouse trachea [2]; virus instilled 0.5 h after treatment): significantly enhanced
- increase in expression from an AdV infection (polarized NHBE cells): ~50 fold
